Laboratory results from PMC10136135, “Electronic Circular Dichroism Detects Conformational Changes Associated with Proteasome Gating Confirmed Using AFM Imaging” (Biomolecules, 2023).
Where a SMILES comes first, the peptide text is derived from it.

Experiments:
[1] = test system: T1, yWT20S / y20S WT (wild type yeast 20S proteasome); assay: ECD spectral change (difference spectrum); format: binding, Saccharomyces cerevisiae; conditions: 25 nM 20S, 150 mM Tris, 100 mM NaCl, pH 7.6, 22 °C; H2T4 1 µM in text, 10 µM in figure legend; allosteric, gate opening
T1 construct: gene SCL1; 20S core particle, 28 subunits (alpha-beta-beta-alpha heptameric rings); with Proteasome subunit beta type-1; Proteasome subunit beta type-2; Proteasome subunit beta type-3; Proteasome subunit beta type-4; Proteasome subunit beta type-5; Proteasome subunit beta type-6; Proteasome subunit beta type-7

[2] = test system: T2, h20S (human 20S proteasome); assay: AFM imaging of gate conformers; also ECD shift; format: binding; conditions: 5 mM Tris-HCl pH 7; at least 15 min after addition; control 7 ± 1% open; ECD at 1 µM, 25 nM h20S, pH 7.6, 22 °C; allosteric, gate opening
T2 construct: gene PSMA1; 20S core particle, 28 subunits (alpha-beta-beta-alpha heptameric rings); commercial, Enzo Life Sciences (AFM); H2T4 at the alpha ring gate, Suc-LLVY-MCA at the beta5 (ChT-L) site; with Proteasome subunit beta type-6; Proteasome subunit beta type-7; Proteasome subunit beta type-3; Proteasome subunit beta type-2; Proteasome subunit beta type-1; Proteasome subunit beta type-4

[3] = test system: T2, h20S (human 20S proteasome); assay: AFM imaging of gate conformers; format: binding; conditions: 5 mM Tris-HCl pH 7, 1% DMSO; beta5 (ChT-L) site

Compound | ECD spectral change (difference spectrum) [1] | % open conformers at 0.2 μM [2] | % open conformers at 100 μM [3]
C[n+]1ccc(-c2c3nc(c(-c4cc[n+](C)cc4)c4ccc([nH]4)c(-c4cc[n+](C)cc4)c4nc(c(-c5cc[n+](C)cc5)c5ccc2[nH]5)C=C4)C=C3)cc1 [H2T4, 5,10,15,20-tetrakis-4-N-methylpirydyl porphyrin] | the addition of H2T4 induces changes in the ECD spectra of yWT20S | 22 ± 1.3% | 
Cc1cc(=O)oc2cc(NC(=O)[C@H](Cc3ccc(O)cc3)NC(=O)[C@@H](NC(=O)[C@H](CC(C)C)NC(=O)[C@H](CC(C)C)NC(=O)CCC(=O)O)C(C)C)ccc12 [SucLLVY-MCA, succinyl-LeuLeuValTyr-7-amino-4-methylcoumarin] (HELM PEPTIDE1{[O=C(O)CCC(=O)[*:2]].L.L.V.Y.[Cc1cc(=O)oc2cc(N[*:1])ccc12]}$$$$V2.0) |  |  | addition of the model substrate or the porphyrin ligand shifted the conformational equilibrium
